According to PMC5094189 (Journal of the American Chemical Society, 2016):

What was measured:
[1] = test system: U937 human histiocytic lymphoma cells; conditions: cited from earlier work
[2] = test system: TNFα secretion from U937 cells; test: TNFα secretion from U937 cells; type: cell-based, human; conditions: treatment for 60 hours
[3] = test system: U937 human histiocytic lymphoma cells; conditions: cited from earlier work; remark: listed apart in the source
Toledo cells = test: Toledo cell growth assay; type: cell-based

Structure (SMILES)	behavior in U937 promyelocytic leukemia cells [1]	effect on proliferation of U937 cells [1]	TNFα secretion [2]	effect on attachment of U937 cells [3]	growth inhibition of Toledo cells (Toledo cells)
COC(=O)/C=C1\C[C@H]2C[C@]3(O)O[C@H](C[C@@H](O)CC(=O)O[C@@H](C)[C@H](O)C[C@@H]4C[C@@H]5CC(=O)O[C@]5(O4)C(=O)C(C)(C)/C=C/[C@@H](C1)O2)C[C@H](OC(=O)C(C)(C)C)C3(C)C [Neristatin 1]	bryostatin 1-like behavior				
CCC/C=C/C=C/C(=O)O[C@H]1/C(=C/C(=O)OC)C[C@H]2C[C@H]([C@@H](C)O)OC(=O)C[C@H](O)C[C@@H]3C[C@H](OC(C)=O)C(C)(C)[C@](O)(C[C@@H]4C/C(=C/C(=O)OC)C[C@H](/C=C/C(C)(C)[C@]1(O)O2)O4)O3 [bryostatin 1]		little response	little effect	little response	induce antiproliferative responses
CCCCCCCCCCCCCC(=O)O[C@@H]1[C@@H](C)[C@@]2(O)[C@@H](C=C(CO)C[C@]3(O)C(=O)C(C)=C[C@@H]23)[C@@H]2C(C)(C)[C@]12OC(C)=O [PMA, phorbol 12-myristate 13-acetate]		inhibits the proliferation	induces secretion in a dose-dependent manner	promotes attachment	induce antiproliferative responses
